Source: patent US20260374756A1, “HETEROCYCLIC COMPOUNDS AS INHIBITORS OF MONOACYLGLYCEROL LIPASE (MAGL)” (Hoffmann-La Roche Inc., priority 2022, published 2026)

target: T1, hMAGL (Homo sapiens, UniProt Q99685); experiment: 2-AG assay: MAGL inhibition, hydrolysis of 2-arachidonoylglycerol to arachidonic acid followed by mass spectrometry; type: biochemical
T1 sequence (Q99685 1-303): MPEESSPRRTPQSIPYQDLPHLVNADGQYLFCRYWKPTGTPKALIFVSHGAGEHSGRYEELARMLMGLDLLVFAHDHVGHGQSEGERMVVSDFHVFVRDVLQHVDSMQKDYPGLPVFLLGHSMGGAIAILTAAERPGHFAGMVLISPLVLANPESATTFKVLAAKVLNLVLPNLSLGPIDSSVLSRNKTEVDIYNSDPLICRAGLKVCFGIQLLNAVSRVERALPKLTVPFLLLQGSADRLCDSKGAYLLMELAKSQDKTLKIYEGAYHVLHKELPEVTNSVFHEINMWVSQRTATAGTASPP
Procedure, shortened: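 MAGL preincubated with compound 15 min at RT in 50 mM Tris, 1 mM EDTA, 0.01% Tween-20, 2.5% DMSO; reaction started with 8 μM 2-AG (final), […], 30 min at RT. Quenched with acetonitrile containing d8-arachidonic acid; arachidonic acid quantified by RapidFire SPE-triple quad MS as arachidonic acid/d8 ratio.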

SMILES	IC50 [nM]
O=C(N1CC2(CC(n3cnc(C(F)(F)F)n3)C2)C1)N1CC2(CN(Cc3ncoc3C(F)(F)F)C2)C1 [Example 220]	178
O=C(N1CC2(CC(Cn3ccc(C4CC4)n3)C2)C1)N1CC2(CC(n3cnc(C(F)(F)F)n3)C2)C1 [Example 142, [6-[(3-cyclopropylpyrazol-1-yl)methyl]-2-azaspiro[3.3]heptan-2-yl]-[6-[3-(trifluoromethyl)-1,2,4-triazol-1-yl]-2-azaspiro[3.3]heptan-2-yl]methanone]	0.94
O=C(N1CC2(CCC(Cc3nnc(C(F)(F)F)[nH]3)CC2)C1)N1CC2(CC(n3cnc(C4(O)CC4)n3)C2)C1 [Example 35, [6-[3-(1-hydroxycyclopropyl)-1,2,4-triazol-1-yl]-2-azaspiro[3.3]heptan-2-yl]-[7-[[5-(trifluoromethyl)-4H-1,2,4-triazol-3-yl]methyl]-2-azaspiro[3.5]nonan-2-yl]methanone]	114
Cn1ncc(OC2CC3(C2)CN(C(=O)N2CC4(CC(n5cnc(C(F)(F)F)n5)C4)C2)C3)c1C(F)(F)F [Example 246, [6-[1-methyl-5-(trifluoromethyl)pyrazol-4-yl]oxy-2-azaspiro[3.3]heptan-2-yl]-[6-[3-(trifluoromethyl)-1,2,4-triazol-1-yl]-2-azaspiro[3.3]heptan-2-yl]methanone]	3.98
Cn1nc(C(F)(F)F)cc1CN1CCC2(CC1)CN(C(=O)N1CC3(CC(n4cnc(C(F)(F)F)n4)C3)C1)C2 [Example 25]	25.2
O=C(N1CC2(CC(Cc3n[nH]c(C4CC4)n3)C2)C1)N1CC2(CC(n3cnc(C4CC4)n3)C2)C1 [Example 304, [6-(3-cyclopropyl-1,2,4-triazol-1-yl)-2-azaspiro[3.3]heptan-2-yl]-[6-[(5-cyclopropyl-1H-1,2,4-triazol-3-yl)methyl]-2-azaspiro[3.3]heptan-2-yl]methanone]	1.82
CCn1nc(C(F)(F)F)cc1CN1CC2(C1)CN(C(=O)N1CC3(CC(n4cnc(C(F)(F)F)n4)C3)C1)C2 [Example 169]	8.89
Cn1ncc(P(C)(C)=O)c1CN1CC2(C1)CN(C(=O)N1CC3(CC(n4cnc(C5CC5)n4)C3)C1)C2 [Example 228, [6-(3-cyclopropyl-1,2,4-triazol-1-yl)-2-azaspiro[3.3]heptan-2-yl]-[6-[(4-dimethylphosphoryl-2-methyl-pyrazol-3-yl)methyl]-2,6-diazaspiro[3.3]heptan-2-yl]methanone]	210
O=C(N1CC2(CC(n3cnc(C(F)(F)F)n3)C2)C1)N1CC2(CN(Cc3ccnn3CC(F)F)C2)C1 [Example 260, [6-[[2-(2,2-difluoroethyl)pyrazol-3-yl]methyl]-2,6-diazaspiro[3.3]heptan-2-yl]-[6-[3-(trifluoromethyl)-1,2,4-triazol-1-yl]-2-azaspiro[3.3]heptan-2-yl]methanone]	167
Cc1cc(C(F)(F)F)n(CC2CC3(C2)CN(C(=O)N2CC4(CC(n5cnc(C6(O)CC6)n5)C4)C2)C3)n1 [Example 73]	110

Further molecules by falling IC50, results first:

IC50 [nM]	SMILES
312	O=C(N1CC2(CC(n3cnc(C(F)(F)F)n3)C2)C1)N1CC2(CN(Cc3snnc3C3CC3)C2)C1 [Example 89, [6-[(4-cyclopropylthiadiazol-5-yl)methyl]-2,6-diazaspiro[3.3]heptan-2-yl]-[6-[3-(trifluoromethyl)-1,2,4-triazol-1-yl]-2-azaspiro[3.3]heptan-2-yl]methanone]
69.2	O=C(N1CC2(CC(n3cnc(C4CC4)n3)C2)C1)N1CC2(CN(Cc3ccnn3CC(F)(F)F)C2)C1 [Example 223, [6-(3-cyclopropyl-1,2,4-triazol-1-yl)-2-azaspiro[3.3]heptan-2-yl]-[6-[[2-(2,2,2-trifluoroethyl)pyrazol-3-yl]methyl]-2,6-diazaspiro[3.3]heptan-2-yl]methanone]
10.8	O=C(N1CC2(CC(n3cnc(C4(O)CC4)n3)C2)C1)N1CC2(CN(Cc3ncc(C(F)(F)F)s3)C2)C1 [Example 148, [6-[3-(1-hydroxycyclopropyl)-1,2,4-triazol-1-yl]-2-azaspiro[3.3]heptan-2-yl]-[6-[[5-(trifluoromethyl)thiazol-2-yl]methyl]-2,6-diazaspiro[3.3]heptan-2-yl]methanone]
8.92	CC(F)(F)c1noc(CN2CC3(C2)CN(C(=O)N2CC4(CC(n5cnc(C6CC6)n5)C4)C2)C3)n1 [Example 259, [6-(3-cyclopropyl-1,2,4-triazol-1-yl)-2-azaspiro[3.3]heptan-2-yl]-[6-[[3-(1,1-difluoroethyl)-1,2,4-oxadiazol-5-yl]methyl]-2,6-diazaspiro[3.3]heptan-2-yl]methanone]
5.1	CC(C)(C)c1ncc(CN2CC3(C2)CN(C(=O)N2CC4(CC(n5cnc(C6CC6)n5)C4)C2)C3)s1 [Example 57, [6-[(2-tert-butylthiazol-5-yl)methyl]-2,6-diazaspiro[3.3]heptan-2-yl]-[6-(3-cyclopropyl-1,2,4-triazol-1-yl)-2-azaspiro[3.3]heptan-2-yl]methanone]
3.94	O=C(N1CC2(CC(n3cnc(C4CC4)n3)C2)C1)N1CC2(CN(Cc3ncc(C(F)F)s3)C2)C1 [Example 188, [6-(3-cyclopropyl-1,2,4-triazol-1-yl)-2-azaspiro[3.3]heptan-2-yl]-[6-[[5-(difluoromethyl)thiazol-2-yl]methyl]-2,6-diazaspiro[3.3]heptan-2-yl]methanone]
3.44	O=C(N1CC2(CC(c3cc(C4CC4)n[nH]3)C2)C1)N1CC2(CN(Cc3ncc(C(F)F)s3)C2)C1 [Example 185, [6-(3-cyclopropyl-1H-pyrazol-5-yl)-2-azaspiro[3.3]heptan-2-yl]-[6-[[5-(difluoromethyl)thiazol-2-yl]methyl]-2,6-diazaspiro[3.3]heptan-2-yl]methanone]
1.02	Cc1cc(C(F)F)n(CC2CC3(C2)CN(C(=O)N2CC4(CC(n5cnc(C(F)(F)F)n5)C4)C2)C3)n1 [Example 91, [6-[[5-(difluoromethyl)-3-methyl-pyrazol-1-yl]methyl]-2-azaspiro[3.3]heptan-2-yl]-[6-[3-(trifluoromethyl)-1,2,4-triazol-1-yl]-2-azaspiro[3.3]heptan-2-yl]methanone]
0.26	O=C(N1CC2(CC(Cc3cn(C4CC4)nc3C(F)(F)F)C2)C1)N1CC2(CC(n3cnc(C(F)(F)F)n3)C2)C1 [Example 61, [6-[[1-cyclopropyl-3-(trifluoromethyl)pyrazol-4-yl]methyl]-2-azaspiro[3.3]heptan-2-yl]-[6-[3-(trifluoromethyl)-1,2,4-triazol-1-yl]-2-azaspiro[3.3]heptan-2-yl]methanone]
0.14	O=C(N1CC2(CC(Cc3cn(C4CC4)nc3C(F)(F)F)C2)C1)N1CC2(CC(n3cnc(C4CC4)n3)C2)C1 [Example 62, [6-(3-cyclopropyl-1,2,4-triazol-1-yl)-2-azaspiro[3.3]heptan-2-yl]-[6-[[1-cyclopropyl-3-(trifluoromethyl)pyrazol-4-yl]methyl]-2-azaspiro[3.3]heptan-2-yl]methanone]
0.11	O=C(N1CC2(CC(Cn3nccc3C3CC3)C2)C1)N1CC2(CC(n3cnc(C4CC4)n3)C2)C1 [Example 355, [6-[(5-cyclopropylpyrazol-1-yl)methyl]-2-azaspiro[3.3]heptan-2-yl]-[6-(3-cyclopropyl-1,2,4-triazol-1-yl)-2-azaspiro[3.3]heptan-2-yl]methanone]
